In patent publication US8722580B2, “Agent for inhibiting cytokinin signaling” (Sumitomo Chemical Company, Limited, priority 2006, dated 2014):

Experiments:
cytokinin receptor CRE1 = molecular target: T1, cytokinin receptor CRE1 (Arabidopsis thaliana, UniProt Q9C5U0, S567G/T1018A); experiment: Inhibition of intracellular signaling from plant-derived cytokinin receptor, growth of transformed yeast cell TM182-CRE1; format: cell-based; conditions: trans-zeatin 0.6 ppm, chemical substance 2 ppm
T1 construct: expressed in transfected cells; host or cells: Saccharomyces cerevisiae TM182 (sln1Δ) transformed with p415CYC-CRE1
T1 sequence (Q9C5U0 24-1080 S567G/T1018A): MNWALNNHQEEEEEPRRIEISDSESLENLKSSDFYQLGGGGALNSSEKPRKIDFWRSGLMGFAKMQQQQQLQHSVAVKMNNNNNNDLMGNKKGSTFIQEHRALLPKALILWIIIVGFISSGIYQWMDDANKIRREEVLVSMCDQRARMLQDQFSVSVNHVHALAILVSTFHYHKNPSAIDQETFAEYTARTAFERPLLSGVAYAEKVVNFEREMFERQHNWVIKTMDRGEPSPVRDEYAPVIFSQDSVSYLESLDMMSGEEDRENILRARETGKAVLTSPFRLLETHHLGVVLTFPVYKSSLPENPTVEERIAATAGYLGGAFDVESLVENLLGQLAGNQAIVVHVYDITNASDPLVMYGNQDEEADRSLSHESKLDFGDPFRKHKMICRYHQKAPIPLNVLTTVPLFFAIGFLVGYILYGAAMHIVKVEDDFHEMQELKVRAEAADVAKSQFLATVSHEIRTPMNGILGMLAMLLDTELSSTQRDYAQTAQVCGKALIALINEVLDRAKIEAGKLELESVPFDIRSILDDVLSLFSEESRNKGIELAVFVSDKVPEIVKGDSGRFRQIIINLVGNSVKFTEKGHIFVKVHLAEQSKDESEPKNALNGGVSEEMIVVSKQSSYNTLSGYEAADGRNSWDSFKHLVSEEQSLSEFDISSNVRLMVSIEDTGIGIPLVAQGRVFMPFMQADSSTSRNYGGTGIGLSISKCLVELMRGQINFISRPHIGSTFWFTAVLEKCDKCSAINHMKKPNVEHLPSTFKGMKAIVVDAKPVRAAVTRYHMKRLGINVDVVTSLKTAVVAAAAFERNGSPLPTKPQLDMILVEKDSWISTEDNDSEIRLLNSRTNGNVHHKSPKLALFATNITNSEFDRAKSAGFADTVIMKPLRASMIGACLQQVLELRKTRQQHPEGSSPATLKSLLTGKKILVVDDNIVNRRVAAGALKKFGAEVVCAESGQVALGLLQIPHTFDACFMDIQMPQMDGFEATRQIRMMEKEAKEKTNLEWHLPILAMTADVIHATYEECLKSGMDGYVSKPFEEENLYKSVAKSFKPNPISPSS
Method in brief: (§1)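 Yeast TM182-CRE1 (DOLU+Glu) or control TM182-p415CYC1 (DOLU+Gal), after 18 h preculture at 30° C and dilution to OD600=0.1, exposed to compound at 2 ppm plus trans-zeatin 0.6 ppm for 24 h at 30° C. OD600 vs DMSO control, blank-corrected; inhibition = 100 − relative growth %.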

[1] = tested on: transformed cell TM182-p415CYC1; experiment: Control growth test with transformed yeast cell TM182-p415CYC1 (toxicity to yeast); format: cell-based; conditions: trans-zeatin 0.6 ppm; chemical substance 2 ppm; 30° C., 24 hours; turbidity OD 600
Method in brief: as §1

Arabidopsis thaliana = experiment: Root growth-promoting activity test (Example 9); format: in vivo; conditions: test final concentration 5 ppm (concentration with highest root growth rate); main root length vs control section, 22° C., 10 days
Method in brief: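 Arabidopsis seeds (10–20 per tube) were grown in Enshi standard medium containing the compound from DMSO at 0.001–10 ppm final, at 22° C in light for 10 days. Main root length was averaged over eight repeats and expressed as % of the control.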

rice [2] = experiment: Root growth-promoting activity using rice, soil drenching (Example 14); format: in vivo, Oriza sativa japonica Nipponbare; conditions: soil drenched with 10 ppm solution, 500 μl per well
Experimental: With respect to the chemical substance Ic3-3, a root growth promoting activity was measured using rice (Oriza sativa japonica Nipponbare).
First, an acetone solution containing a predetermined concentration of the chemical substance was prepared and then 100-fold diluted with distilled water to 10 ppm (containing 1% acetone) to obtain a chemical substance solution. Seeds were immersed in water for 2 days to stimulate germination. The seeds were sowed in a 288-well plug tray (3 seeds per well), and then soil was drenched with the above chemical substance solution in an amount of 500 μl per well. After covering with soil, the plug tray was put in a plastic bag and then placed in an air-conditioned room (dark place at 30° C.) for 3 days. After removing the plastic bag from the plug tray, the plug tray was placed under light conditions of light/dark=16 h/8 h for 4 days while the bottom was irrigated at all times. Thus, rice seeds were cultivated to obtain grown rice. The resulting rice roots were washed and the total root length was analyzed using a root length measurement image analyzer WinRHIZO (manufactured by Regent Instruments).

rice [3] = experiment: Rice stand establishment-promoting activity by seed treatment, direct seeding on flooded field (Example 20); format: in vivo, Oryza sativa japonica Nipponbare; conditions: for Stand establishment rate (%) on day 23 after sowing: Blank slurry 76.7
Experimental: (§2) Seeds of rice (Oryza sativa japonica Nipponbare) were treated with the chemical substance Ic3-1 (which inhibits intracellular signaling from a plant-derived cytokinin receptor of a cell) selected in Example 7, and were grown under direct seeding conditions. Then, a stand establishment rate was examined, and thus a rice stand establishment-promoting activity of the chemical substance was evaluated.
(§3) First, a Blank slurry solution containing 5% (v/v) Color Coat Red (manufactured by BECKER UNDERWOOD), 5% (v/v) CF-Clear (manufactured by BECKER UNDERWOOD) and 0.42% (v/v) Maxim-XL (manufactured by Syngenta) was prepared. In 1.3 ml of the Blank slurry solution, 6.25 mg, 12.5 mg, 25 mg or 50 mg of the chemical substance Ic3-3 was dissolved. Seeds were treated with the solution in an amount of 1.3 ml per 50 g of seeds (each corresponding to 0.125 mg, 0.25 mg, 0.5 mg and 1 mg/g seed) using a Hege11 seed treating device (manufactured by Hans-Ulrich Hege).
Then, a concrete pot (50 cm×50 cm) placed outdoors was flooded at a flooding depth of 5 cm, and 50 seeds per pot were sown. On day 23 after sowing, the number of seedlings whose leaf apex appeared on the water surface was examined. […] [Stand establishment rate (%)]=[Number of seedlings whose leaf apex appears on the water surface]/[Number of sown seeds]×100

rice [4] = experiment: Rice tillering-promoting activity by seed treatment, direct seeding on dry field (Example 21); format: in vivo, Oryza sativa japonica Nipponbare; conditions: seed treatment 0.25 mg/g seed; day 30 after sowing
Experimental: as §2, with “on dry field-conditions.” for “conditions.”, “the number of tillers” for “a stand establishment rate”, “tillering-promoting” for “rice stand establishment-promoting”
as §3, with “solution,” for “solution, 6.25 mg,”, “12.5” for “12.5 mg, 25 mg or 50”, “(corresponding” for “(each corresponding”, “to” for “to 0.125 mg,”, “0.25” for “0.25 mg, 0.5 mg and 1”
The, 20 seeds per pot of the treated seeds were sown in a 1/5000a Wagner pot at a depth of 1 cm and then cultured in a greenhouse. On day 10 after sowing, water was charged at a flooding depth of 5 cm and culture was continued. On day 30 after sowing, the number of tillers was examined.

SMILES: OCCCNc1nc(-c2ccccc2)c2cc(Cl)ccc2n1 [Ic3-3]
- Relative growth rate (%) in test section of test substance to control section, Transformed cell TM182-CRE1 (cytokinin receptor CRE1; 30° C., 24 hours, turbidity OD 600): 1.4%
- Activity (%) of test substance for inhibiting intracellular signaling from plant-derived cytokinin receptor of cell (cytokinin receptor CRE1; = 100 − relative growth rate of TM182-CRE1): 98.6%
- Relative growth rate (%) in test section of test substance to control section, Transformed cell TM182-p415CYC1 [1]: 108.6%
- Root growth-promoting activity (root growth rate) (Arabidopsis thaliana): 163.4%
- root growth compared with the control section (UTC) (rice [2]): root growth was remarkably promoted
- total root length (image analyzer WinRHIZO) (rice [2]): an increase of the total root length
- Stand establishment rate (%) on day 23 after sowing (rice [3]; seed treatment 0.125 mg/g seed): 87.3%
- Stand establishment rate (%) on day 23 after sowing (rice [3]; seed treatment 0.25 mg/g seed): 82.7%
- Stand establishment rate (%) on day 23 after sowing (rice [3]; seed treatment 0.5 mg/g seed): 79.3%
- Stand establishment rate (%) on day 23 after sowing (rice [3]; seed treatment 1 mg/g seed): 84.0%
- stand establishment rate compared with the Blank slurry-treated section (rice [3]; seed treatment concentration 0.125 to 1 mg/g seed, day 23 after sowing): a stand establishment rate was increased
- number of tillers per stock compared with the Blank slurry-treated section (rice [4]): the number of tillers per stock was increased
